Experiments:
[1] = system: LOX IMVI; assay: NCI in vitro DTP human cell line screen, LOX IMVI; format: cell-based; details: Melanoma, 1.00E−5 Molar
Protocol: (§1) Then, a cell toxicity assay of the cancer lines made by National Cancer Institute will be discussed as follows. The cell toxicity assay is performed by choosing ten compounds (existing certification numbers) from the 59 compounds disclosed in the present invention first.

[2] = system: OVCAR-3; assay: NCI in vitro DTP human cell line screen, OVCAR-3; format: cell-based; details: Ovarian Cancer, 1.00E−5 Molar
Protocol: as §1

[3] = system: MDA-MB-435; assay: NCI in vitro DTP human cell line screen, MDA-MB-435; format: cell-based; details: Melanoma, 1.00E−5 Molar
Protocol: as §1

[4] = system: NCI/ADR-RES; assay: NCI in vitro DTP human cell line screen, NCI/ADR-RES; format: cell-based; details: Ovarian Cancer, 1.00E−5 Molar
Protocol: as §1

[5] = system: SK-MEL-28; assay: NCI in vitro DTP human cell line screen, SK-MEL-28; format: cell-based; details: Melanoma, 1.00E−5 Molar
Protocol: as §1

[6] = system: SR; assay: NCI in vitro DTP human cell line screen, SR; format: cell-based; details: Leukemia, 1.00E−5 Molar
Protocol: as §1

[7] = system: 786-0; assay: NCI in vitro DTP human cell line screen, 786-0; format: cell-based; details: Renal Cancer, 1.00E−5 Molar
Protocol: as §1

[8] = system: T-47D; assay: NCI in vitro DTP human cell line screen, T-47D; format: cell-based; details: Breast Cancer, 1.00E−5 Molar
Protocol: as §1

[9] = system: NCI-H226; assay: NCI in vitro DTP human cell line screen, NCI-H226; format: cell-based; details: Non-Small Cell Lung Cancer, 1.00E−5 Molar
Protocol: as §1

[10] = system: COLO 205; assay: NCI in vitro DTP human cell line screen, COLO 205; format: cell-based; details: Colon Cancer, 1.00E−5 Molar
Protocol: as §1

[11] = system: ACHN; assay: NCI in vitro DTP human cell line screen, ACHN; format: cell-based; details: Renal Cancer, 1.00E−5 Molar
Protocol: as §1

[12] = system: NCI-H322M; assay: NCI in vitro DTP human cell line screen, NCI-H322M; format: cell-based; details: Non-Small Cell Lung Cancer, 1.00E−5 Molar
Protocol: as §1

[13] = system: HCT-15; assay: NCI in vitro DTP human cell line screen, HCT-15; format: cell-based; details: Colon Cancer, 1.00E−5 Molar
Protocol: as §1

[14] = system: SK-MEL-5; assay: NCI in vitro DTP human cell line screen, SK-MEL-5; format: cell-based; details: Melanoma, 1.00E−5 Molar
Protocol: as §1

[15] = system: A control cell lines; assay: MTT assay, A control cell lines (lung cancer cell); format: cell-based
Text: Please refer to Table 1 and FIGS. 4A-4C. According to a MTT assay (Table 1), various cell viabilities of the A control cell lines can be obtained and illustrated in FIG. 4A while the compounds No. 2˜30 are used to treat A control cell lines, wherein A control cell lines are lung cancer cell.

[16] = system: UACC-257; assay: NCI in vitro DTP human cell line screen, UACC-257; format: cell-based; details: Melanoma, 1.00E−5 Molar
Protocol: as §1

[17] = system: HL-60(TB); assay: NCI in vitro DTP human cell line screen, HL-60(TB); format: cell-based; details: Leukemia, 1.00E−5 Molar
Protocol: as §1

[18] = system: SK-MEL-2; assay: NCI in vitro DTP human cell line screen, SK-MEL-2; format: cell-based; details: Melanoma, 1.00E−5 Molar
Protocol: as §1

[19] = system: NCI-H522; assay: NCI in vitro DTP human cell line screen, NCI-H522; format: cell-based; details: Non-Small Cell Lung Cancer, 1.00E−5 Molar
Protocol: as §1

[20] = system: SK-OV-3; assay: NCI in vitro DTP human cell line screen, SK-OV-3; format: cell-based; details: Ovarian Cancer, 1.00E−5 Molar
Protocol: as §1

[21] = system: OVCAR-4; assay: NCI in vitro DTP human cell line screen, OVCAR-4; format: cell-based; details: Ovarian Cancer, 1.00E−5 Molar
Protocol: as §1

[22] = system: M14; assay: NCI in vitro DTP human cell line screen, M14; format: cell-based; details: Melanoma, 1.00E−5 Molar
Protocol: as §1

[23] = system: MOLT-4; assay: NCI in vitro DTP human cell line screen, MOLT-4; format: cell-based; details: Leukemia, 1.00E−5 Molar
Protocol: as §1

[24] = system: MALME-3M; assay: NCI in vitro DTP human cell line screen, MALME-3M; format: cell-based; details: Melanoma, 1.00E−5 Molar
Protocol: as §1

[25] = system: DU145; assay: NCI in vitro DTP human cell line screen, DU145; format: cell-based; details: Prostate Cancer, 1.00E−5 Molar
Protocol: as §1

[26] = system: MDA-MB-468; assay: NCI in vitro DTP human cell line screen, MDA-MB-468; format: cell-based; details: Breast Cancer, 1.00E−5 Molar
Protocol: as §1

[27] = system: SNB-75; assay: NCI in vitro DTP human cell line screen, SNB-75; format: cell-based; details: CNS Cancer, 1.00E−5 Molar
Protocol: as §1

[28] = system: NCI-H23; assay: NCI in vitro DTP human cell line screen, NCI-H23; format: cell-based; details: Non-Small Cell Lung Cancer, 1.00E−5 Molar
Protocol: as §1

[29] = system: UO-31; assay: NCI in vitro DTP human cell line screen, UO-31; format: cell-based; details: Renal Cancer, 1.00E−5 Molar
Protocol: as §1

[30] = system: MCF7; assay: NCI in vitro DTP human cell line screen, MCF7; format: cell-based; details: Breast Cancer, 1.00E−5 Molar
Protocol: as §1

[31] = system: SF-539; assay: NCI in vitro DTP human cell line screen, SF-539; format: cell-based; details: CNS Cancer, 1.00E−5 Molar
Protocol: as §1

[32] = system: HT29; assay: NCI in vitro DTP human cell line screen, HT29; format: cell-based; details: Colon Cancer, 1.00E−5 Molar
Protocol: as §1

[33] = system: K562; assay: NCI in vitro DTP human cell line screen, K562; format: cell-based; details: Leukemia, 1.00E−5 Molar
Protocol: as §1

[34] = system: EKVX; assay: NCI in vitro DTP human cell line screen, EKVX; format: cell-based; details: Non-Small Cell Lung Cancer, 1.00E−5 Molar
Protocol: as §1

[35] = system: SW-620; assay: NCI in vitro DTP human cell line screen, SW-620; format: cell-based; details: Colon Cancer, 1.00E−5 Molar
Protocol: as §1

[36] = system: RXF 393; assay: NCI in vitro DTP human cell line screen, RXF 393; format: cell-based; details: Renal Cancer, 1.00E−5 Molar
Protocol: as §1

[37] = system: BT-549; assay: NCI in vitro DTP human cell line screen, BT-549; format: cell-based; details: Breast Cancer, 1.00E−5 Molar
Protocol: as §1

[38] = system: KM12; assay: NCI in vitro DTP human cell line screen, KM12; format: cell-based; details: Colon Cancer, 1.00E−5 Molar
Protocol: as §1

[39] = system: SF-295; assay: NCI in vitro DTP human cell line screen, SF-295; format: cell-based; details: CNS Cancer, 1.00E−5 Molar
Protocol: as §1

[40] = system: IGROV1; assay: NCI in vitro DTP human cell line screen, IGROV1; format: cell-based; details: Ovarian Cancer, 1.00E−5 Molar
Protocol: as §1

[41] = system: RPMI-8226; assay: NCI in vitro DTP human cell line screen, RPMI-8226; format: cell-based; details: Leukemia, 1.00E−5 Molar
Protocol: as §1

[42] = system: OVCAR-5; assay: NCI in vitro DTP human cell line screen, OVCAR-5; format: cell-based; details: Ovarian Cancer, 1.00E−5 Molar
Protocol: as §1

[43] = system: 60 cancer lines; assay: NCI cell toxicity assay of 60 cancer lines, whole panel summary; format: cell-based, human; details: mean over all cell lines; 1.00E−5 Molar
Protocol: as §1

[44] = system: HCT-116; assay: NCI in vitro DTP human cell line screen, HCT-116; format: cell-based; details: Colon Cancer, 1.00E−5 Molar
Protocol: as §1

[45] = MTT assay, HEL299 fibroblast; format: cell-based; details: human
Text: Please refer to FIG. 4C, various cell viabilities of the HEL299 cell lines can be obtained through the MTT assay while the compounds No. 1˜30 are used to treat HEL299 cell lines, wherein HEL299 cell lines are fibroblast.

[46] = system: CAKI-1; assay: NCI in vitro DTP human cell line screen, CAKI-1; format: cell-based; details: Renal Cancer, 1.00E−5 Molar
Protocol: as §1

[47] = system: TK-10; assay: NCI in vitro DTP human cell line screen, TK-10; format: cell-based; details: Renal Cancer, 1.00E−5 Molar
Protocol: as §1

[48] = system: PC-3; assay: NCI in vitro DTP human cell line screen, PC-3; format: cell-based; details: Prostate Cancer, 1.00E−5 Molar
Protocol: as §1

[49] = system: SF-268; assay: NCI in vitro DTP human cell line screen, SF-268; format: cell-based; details: CNS Cancer, 1.00E−5 Molar
Protocol: as §1

[50] = system: HS 578-T; assay: NCI in vitro DTP human cell line screen, HS 578-T; format: cell-based; details: Breast Cancer, 1.00E−5 Molar
Protocol: as §1

[51] = system: NCI-H460; assay: NCI in vitro DTP human cell line screen, NCI-H460; format: cell-based; details: Non-Small Cell Lung Cancer, 1.00E−5 Molar
Protocol: as §1

[52] = system: A3 cell lines; assay: MTT assay, A3 cell lines (lung cancer stem cell); format: cell-based
Text: Please to FIG. 4B, various cell viabilities of the A3 cell lines can be obtained through the MTT assay and illustrated in FIG. 4B while the compounds No. 1˜30 are used to treat A3 cell lines, wherein A3 cell lines are lung cancer stem cell.

[53] = system: HCC-2998; assay: NCI in vitro DTP human cell line screen, HCC-2998; format: cell-based; details: Colon Cancer, 1.00E−5 Molar
Protocol: as §1

[54] = system: U251; assay: NCI in vitro DTP human cell line screen, U251; format: cell-based; details: CNS Cancer, 1.00E−5 Molar
Protocol: as §1

[55] = system: OVCAR-8; assay: NCI in vitro DTP human cell line screen, OVCAR-8; format: cell-based; details: Ovarian Cancer, 1.00E−5 Molar
Protocol: as §1

COc1cccc(Sc2ccc3c(=O)c4ccccc4sc3c2Cl)c1 [No. 16, 4-Chloro-3-(3-methoxylphenylthio)-9H-thioxanthen-9-one]
Growth Percent [1]: 93.53% | Growth Percent [2]: 113.99% | Growth Percent [3]: 100.32% | Growth Percent [4]: 102.83% | Growth Percent [5]: 109.16% | Growth Percent [6]: 99.21% | Growth Percent [7]: 107.97% | Growth Percent [8]: 92.09% | Growth Percent [9]: 95.11% | Growth Percent [10]: 113.53% | Growth Percent [11]: 103.08% | Growth Percent [12]: 118.28% | Growth Percent [13]: 94.87% | Growth Percent [14]: 96.73% | cell viabilities of A control cell lines (MTT assay) [15]: 91.8 ± 3.07% | Growth Percent [16]: 89.21% | Growth Percent [17]: 115.43% | Growth Percent [18]: 97.07% | Growth Percent [19]: 86.09% | Growth Percent [20]: 104.91% | Growth Percent [21]: 99.88% | Growth Percent [22]: 111.90% | Growth Percent [23]: 111.47% | Growth Percent [24]: 94.91% | Growth Percent [25]: 115.18% | Growth Percent [26]: 104.49% | Growth Percent [27]: 86.86% | Growth Percent [28]: 92.69% | Growth Percent [29]: 98.31% | Growth Percent [30]: 88.94% | Growth Percent [31]: 100.06% | Growth Percent [32]: 91.02% | Growth Percent [33]: 97.79% | Growth Percent [34]: 96.56% | Growth Percent [35]: 106.14% | Growth Percent [36]: 112.67% | Growth Percent [37]: 112.48% | Growth Percent [38]: 114.13% | Growth Percent [39]: 108.18% | Growth Percent [40]: 108.37% | Growth Percent [41]: 99.57% | Growth Percent [42]: 94.14% | Growth Percent, Mean [43]: 101.65% | Growth Percent [44]: 101.88% | viability [45]: 90.6 ± 11.5% | Growth Percent [46]: 101.23% | Growth Percent [47]: 95.23% | Growth Percent [48]: 98.58% | Growth Percent [49]: 104.10% | Growth Percent [50]: 103.73% | Growth Percent [51]: 108.81% | cell viabilities of A3 cell lines (MTT assay) [52]: 90.0 ± 1.24% | Growth Percent [53]: 103.45% | Growth Percent [54]: 93.76% | Growth Percent [55]: 94.29%

— US8410161B2, “Thioxanthone ring system derivatives” (National Defense Medical Center, priority 2010, dated 2013)
